Source: patent US10669283B2, “Compound and pharmacologically acceptable salt thereof” (MEIJI SEIKA PHARMA CO., LTD., priority 2016, dated 2020)
Where two headings read alike, the source gives them in different places.

Columns and labels:
PDE4 = PDE4 inhibition, scintillation proximity assay (SPA); assay type: biochemical;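 as to PDE4 Inhibitory Activity (concentration for the inhibition rate of 50%): A below 100 nM B 100 to below 1000 nM C 1000 nM or more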
In short: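 Compound pre-diluted 1:10 in 50 mM Tris-HCl pH 7.4, 8.3 mM MgCl2, 1.7 mM EGTA, 3 mg/mL BSA, then incubated with PDE4 and [2,8-3H]-cAMP for 120 min at room temperature. Product captured on ZnSO4-containing YSi-SPA beads for 15 min; radioactivity counted against no-enzyme blank and DMSO control.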

[1] = Hepatic metabolic stability (rat liver microsome method); assay type: in vitro ADME; details: rat liver microsomes 0.5 mg/mL, test substance 1 μM, NADPH 1 mM, 37° C., 30 minutes
In short: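 Test compound (1 μM) preincubated with rat liver microsomes (0.5 mg/mL) in 100 mM potassium phosphate pH 7.4 at 37° C; NADPH (1 mM) started reaction, acetonitrile stopped it at 0 and 30 min. LC-MS quantitation; % remaining = 30-min/0-min ×100, graded A ≥75%, B 60–<75%, C 45–<60%, D <45%.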

[2] = scintillation proximity assay, class symbols, read-out: PDE4 Inhibitory Activity
[3] = scintillation proximity assay (SPA), evaluated as classes A, B, C, read-out: PDE4 Inhibitory Activity (concentration for the inhibition rate of 50%)

SMILES	IC50 (PDE4; [2]) [nM]	Residual ratio (% remaining for 30-minute reaction) [1]	IC50 (PDE4; [3]) [nM]
Cn1ccc(-c2ccc(OC(F)(F)C(C)(C)O)c3nc(N4CC5CC(C4)N5)oc23)n1 [Example 394, 1-((2-(3,6-diazabicyclo[3.1.1]heptan-3-yl)-7-(1-methyl-1H-pyrazol-3-yl)benzo[d]oxazol-4-yl)oxy)-1,1-difluoro-2-methylpropan-2-ol]	100 to 1000	A (a % remaining rate of 75% or more)	–
C[S+]([O-])c1ccc(-c2nccs2)c2oc(N3CC4CC(C3)N4)nc12 (stereo not shown) [Example 346, 2-(3,6-diazabicyclo[3.1.1]heptan-3-yl)-4-(methylsulfinyl)-7-(thiazol-2-yl)benzo [d]oxazole]	< 100	A (a % remaining rate of 75% or more)	–
FC(F)(F)Oc1c(Cl)cc(-c2nccs2)c2oc(N3CC4CC(C3)N4)nc12 [Example 3, 2-(3,6-Diazabicyclo[3.1.1]heptan-3-yl)-5-chloro-7-(thiazol-2-yl)-4-(trifluoromethoxy)benzo[d]oxazole]	–	B (60% or more and less than 75%)	< 100
OCc1ccc(Oc2ccc(-c3nccs3)c3oc(N4CC5CC(C4)N5)nc23)nc1 [Example 341, (6-((2-(3,6-diazabicyclo[3.1.1]heptan-3-yl)-7-(thiazol-2-yl)benzo[d]oxazol-4-yl)oxy)pyridin-3-yl)methanol]	< 100	A (a % remaining rate of 75% or more)	–
CC(C)(O)C(F)(F)Oc1ccc(-c2ccc(Cl)cn2)c2oc(N3CC4CC(C3)N4)nc12 [Example 363, 1-((2-(3,6-diazabicyclo [3.1.1]heptan-3-yl)-7-(5-chloropyridin-2-yl)benzo[d]oxazol-4-yl)oxy)-1,1-difluoro-2-methyl-propan-2-ol]	< 100	A (a % remaining rate of 75% or more)	–
c1csc(-c2ccc(OC3CCOCC3)c3nc(N4CC5CCC(C4)N5)oc23)n1 [Example 254, 2-(3,8-Diazabicyclo[3.2.1]octan-3-yl)-4-((tetrahydro-2H-pyran-4-yl)oxy)-7-(thiazol-2-yl)benzo[d]oxazole]	–	A (a % remaining rate of 75% or more)	< 100
Cc1csc(-c2ccc(OC(F)(F)C(C)(C)O)c3nc(N4CC5CC(C4)N5)oc23)n1 [Example 306, 1-((2-(3,6-Diazabicyclo[3.1.1]heptan-3-yl)-7-(4-methylthiazol-2-yl)benzo[d]oxazol-4-yl)oxy)-1,1-difluoro-2-methylpropan-2-ol]	–	A (a % remaining rate of 75% or more)	100 to 1000
Cc1cc(C(F)(F)F)c(Oc2ccc(-c3nccs3)c3oc(N4CC5CC(C4)N5)nc23)nn1 [Example 340, 2-(3,6-diazabicyclo[3.1.1]heptan-3-yl)-4-((6-methyl-4-(trifluoro-methyl)pyridazin-3-yl)oxy)-7-(thiazol-2-yl)benzo[d] oxazole]	< 100	A (a % remaining rate of 75% or more)	–
OCC(O)C(F)(F)Oc1ccc(-c2nccs2)c2oc(N3CC4CC(C3)N4)nc12 (stereo not shown) [Example 370, 3-((2-(3,6-diazabicyclo[3.1.1]heptan-3-yl)-7-(thiazol-2-yl)benzo[d]oxazol-4-yl)oxy)-3,3-difluoropropane-1,2-diol]	< 100	A (a % remaining rate of 75% or more)	–
CC(O)(CO)C(F)(F)Oc1ccc(-c2nccs2)c2oc(N3CC4CC(C3)N4)nc12 (racemic) [Example 326, 3-((2-(3,6-Diazabicyclo[3.1.1]heptan-3-yl)-7-(thiazol-2-yl)benzo[d]oxazol-4-yl)oxy)-3,3-difluoro-2-methylpropane-1,2-diol]	< 100	A (a % remaining rate of 75% or more)	–
N#Cc1ccc(-c2nccs2)c2oc(N3CC4CC(C3)N4)nc12 [Example 335, 2-(3,6-diazabicyclo [3.1.1]heptan-3-yl)-7-(thiazol-2-yl)benzo [d]oxazole-4-carbonitrile]	< 100	A (a % remaining rate of 75% or more)	–
CC(C)(O)C(F)(F)Oc1ccc(-n2cccn2)c2oc(N3CC4CCC(C3)N4)nc12 [Example 316, 1-((2-(3,8-Diazabicyclo[3.2.1]octan-3-yl)-7-(1H-pyrazol-1-yl)benzo[d]oxazol-4-yl)oxy)-1,1-difluoro-2-methylpropan-2-ol]	–	A (a % remaining rate of 75% or more)	< 100
CC(C)(O)C(F)(F)Oc1ccc(-c2nccs2)c2oc(N3CC4CCC(C3)N4)nc12 [Example 405, 1-((2-(3,8-diazabicyclo [3.2.1]octan-3-yl)-7-(thiazol-2-yl)benzo[d]oxazol-4-yl)oxy)-1,1-difluoro-2-methylpropan-2-ol]	< 100	B (60% or more and less than 75%)	–
FC(F)(F)c1c(Cl)cc(-n2cccn2)c2oc(N3CC4CC(C3)N4)nc12 [Example 17, 2-(3,6-Diazabicyclo[3.1.1]heptan-3-yl)-5-chloro-7-(1H-pyrazol-1-yl)-4-(trifluoromethyl)benzo[d]oxazole]	–	B (60% or more and less than 75%)	< 100
C[C@@H](O)COc1ccc(-c2nccs2)c2oc(N3CC4CC(C3)N4)nc12 [Example 259, (2R)-1-((2-(3,6-diazabicyclo[3.1.1]heptan-3-yl)-7-(thiazol-2-yl)benzo[d]oxazol-4-yl)oxy)propan-2-ol]	–	A (a % remaining rate of 75% or more)	< 100
CC(C)(O)C(F)(F)Oc1ccc(-c2ccc(F)cn2)c2oc(N3CC4CC(C3)N4)nc12 [Example 329, 1-((2-(3,6-Diazabicyclo[3.1.1]heptan-3-yl)-7-(5-fluoropyridin-2-yl)benzo[d]oxazol-4-yl)oxy)-1,1-difluoro-2-methylpropan-2-ol]	< 100	A (a % remaining rate of 75% or more)	–
Cc1csc(-c2ccc(OC(F)(F)C(C)(C)O)c3nc(N4CC5CCC(C4)N5)oc23)n1 [Example 318, 1-((2-(3,8-Diazabicyclo[3.2.1]octan-3-yl)-7-(4-methylthiazol-2-yl)benzo[d]oxazol-4-yl)oxy)-1,1-difluoro-2-methylpropan-2-ol]	–	B (60% or more and less than 75%)	< 100
CS(=O)(=O)c1ccc(-c2nccs2)c2oc(N3CC4CC(C3)N4)nc12 [Example 347, 2-(3,6-diazabicyclo[3.1.1]heptan-3-yl)-4-(methylsulfonyl)-7-(thiazol-2-yl)benzo [d]oxazole]	< 100	A (a % remaining rate of 75% or more)	–
c1csc(-c2ccc(OC3CCOCC3)c3nc(N4CC5CC(C4)N5)oc23)n1 [Example 294, 2-(3,6-Diazabicyclo[3.1.1]heptan-3-yl)-4-((tetrahydro-2H-pyran-4-yl)oxy)-7-(thiazol-2-yl)benzo[d]oxazole]	–	A (a % remaining rate of 75% or more)	< 100
CC(C)(O)C(F)(F)Oc1ccc(-c2ncco2)c2oc(N3CC4CCC(C3)N4)nc12 [Example 321, 1-((2-(3,8-Diazabicyclo[3.2.1]octan-3-yl)-7-(oxazol-2-yl)benzo[d]oxazol-4-yl)oxy)-1,1-difluoro-2-methylpropan-2-ol]	–	A (a % remaining rate of 75% or more)	< 100
